Test results as given in publication PMC8318231, “Rate-of-Kill (RoK) assays to triage large compound sets for Chagas disease drug discovery: Application to GSK Chagas Box” (PLoS Neglected Tropical Diseases, 2021).

System: T. cruzi intracellular amastigotes in H9c2 cells
Assay: Rate-of-Kill (RoK) high-content imaging assay, amastigotes per cell (AM/CELL) and curve descriptors
Assay type: cell-based, Trypanosoma cruzi
Set-up: key to ME_24h / ME_48h / ME_72h: % reduction in parasite burden (cidal response); t50pct_MCC50 / t50pct_Cmax: unit not given here
Settings: for ME_24h: 24h; for ME_48h: 48h; for ME_72h: 72h; for t50%_Cmax / tlag_Cmax / t50pct_Cmax: at Cmax; for ME_24h (%): maximum effect at 24 h; for ME_24h (%) / ME_48h (%) / ME_72h (%): RoK assay; for ME_48h (%): maximum effect at 48 h; for ME_72h (%): maximum effect at 72 h
Method: For this high-content intracellular imaging assay, H9c2 cells were seeded in 225 cm^2 T- FLASK in DMEM with 10% FBS for 4 h to allow attachment. T. cruzi trypomastigotes, collected at days 5 to 8 after infection from LLC-MK2 parasite infected cultures, were allowed to swim out for 4 h at 37°C from a centrifuged pellet (1,600 x g / 10 min). Trypomastigotes were then collected and counted in a CASY Cell Counter using the 60 μm capillary. Trypomastigotes, in supplemented DMEM, were added to H9c2 cultures in a multiplicity of infection (MOI) of 8 and incubated for 18 h. Cells were washed once with PBS before incubation of the infected H9c2 monolayer with trypsin (Life-Technologies) to detach cells from the flask. Cells were counted in a CASY Cell Counter, using the 150 μm capillary, and their density set at 5 x 10^4 cells/mL in supplemented DMEM. Infected H9c2 were dispensed into 384-well plates at 50 μL per well using a Multidrop Combi dispenser. Control wells used to determine a 100% parasitic growth (full 6th column of each plate) were left untreated, whereas not infected cells were added in the control wells used as 0% parasite growth (or 100% parasite growth inhibition; full 18th column of each plate). The four plates corresponding to each RoK assay were predispensed for the same mother plate. […] Cultures were then fixed and stained with 50 μL per well of a PBS solution containing 4% formaldehyde and 2 μM DRAQ5 DNA dye (BioStatus, UK). Then plates were read in a PerkinElmer Opera Phenix using a 20x objective, 3 fields per well. DRAQ5 signal was detected using 640 nm excitation laser and a 690/50 nm emission detection filter. Automated image analysis was performed with a script developed on Acapella High Content Imaging and Analysis Software (PerkinElmer). Two outputs were provided for each sample well: (1) number of host cells nuclei to determine drug-related cytotoxicity (aka H9c2) and (2) number of amastigotes per cell as infection level measurement (aka AM/CELL). Each output is plotted as a time course for each compound at every concentration. This assay was adapted from Alonso-Padilla et al. and Peña et al..
To identify and classify the different compounds, the number of amastigotes per cell (AM/CELL) raw data obtained in rate of kill assay are normalised using the average of C1 (infected cells) at time 4 hours as 0% effect and the average of C2 (non-infected cells) for each time as 100% effect, according to the following Eq 1: %CIDALRESPONSE=100*[Avg_C14h-RawData]/[Avg_C14h-Avg_C2] (1)
• ME (Maximum Effect) is the maximum percentage of parasite burden reduction reached by any compound concentration. Compounds that decrease the initial parasite load will show a positive value of ME, whereas compounds that allow the progression of infection will render a negative ME value. […] It is calculated for the MCC50 (t50%_MCC50) and for the maximum concentration (t50%_Cmax). […] The value of this parameter is not either interpolated or extrapolated, and it refers to the first experimental time-course point at which a 50% of effect is reached or exceeded. • tlag defines the time elapsed for one particular concentration to reduce parasite burden between two consecutive points at any moment of the time course. It is calculated for the MCC50 (tlag_MCC50) and for the maximum concentration (tlag_Cmax). The value of this parameter is not either interpolated or extrapolated, and it refers to the first experimental time-course point of a positive slope in the normalised plot (i.e. %Cidal_Response). • Cmin_Tox (Minimal CytoToxic Concentration) is the lowest compound concentration that is reducing the number of host mammalian cells below 50% of initial cell density. Cytotoxic compounds may mislead a bona fide antiparasitic action.

[1] = maximum percentage of parasite burden reduction reached by any concentration, 24 hours

Row | SMILES | ME_24h (figure 5) | ME_48h (figure 5) | ME_72h (figure 5) | MCC50 (RoK curve descriptor) [µM] | MCCE (RoK curve descriptor) [µM] | AM/CELL NORM (Time 4, sheet figure 4 A) | AM/CELL NORM (Time 24, sheet figure 4 A) | AM/CELL NORM (Time 48, sheet figure 4 A) | AM/CELL NORM (Time 72, sheet figure 4 A) | tlag_Cmax [h] | t50pct_Cmax (figure 5) | tlag_Cmax (figure 5) | t50%_MCC50 (at MCC50) [h] | t50pct_MCC50 (at MCC50, figure 5) | tlag_MCC50 (at MCC50, figure 5) | MCCE (figure 5) | ME_24h (%) | ME_48h (%) | ME_72h (%) | ME 24h (maximum effect at 24 hours, intracellular amastigotes) [1] [%] | further results
1 | Cc1[nH]c2ccccc2c(=O)c1Cc1c(C)[nH]c2ccccc2c1=O [TCMDC-143490] | 37.5404 | 50.8304 | 51.8782 | 50.0 | 0.01 | 13.7757 | 37.5404 | 50.8304 | 51.8782 | 4.0 | 48 | 4 | 48.0 | 48 | 4 | 0.007621 | 37.5 | 50.8 | 51.9 | 37.5404 | t50%_Cmax: 48.0 h; tlag_MCC50 (at MCC50): 4.0 h; MCC50 (figure 5): 50 µM
2 | c1ccc2c(CCOc3nccnc3-c3ccncc3)c[nH]c2c1 [TCMDC-143562] | -24.9705 | 30.5632 | 12.8696 | – | 0.2 | -8.107 | -35.3498 | 30.5632 | -2.217 | 24.0 | 72 | 24 | – | 72 | 72 | 0.2058 | -25.0 | 30.6 | 12.9 | -24.9705 | MCC50 (figure 5): 50 µM
3 | N#Cc1ccc(S(=O)(=O)N2CCC3(CCN(c4ccccc4)C3=O)CC2)cc1 [TCMDC-143371] | -78.0559 | 40.2473 | 62.6058 | 5.6 | 1.2 | 10.0376 | -56.4995 | 45.4375 | 85.4584 | 36.0 | 72 | 36 | 72.0 | 72 | 48 | 1.235 | -78.1 | 40.3 | 62.6 | -50.5626 | t50%_Cmax: 72.0 h; tlag_MCC50 (at MCC50): 24.0 h; MCC50 (figure 5, in µM): 27.7778
4 | O=C(O)C(F)(F)F.O=c1oc2ccccc2n1C1CCN(Cc2ccccc2-c2cccnc2)CC1 [TCMDC-143389] | -205.37 | -40.6003 | 54.0373 | 5.6 | 0.2 | -7.014 | -205.37 | -40.6003 | 17.0901 | 24.0 | 72 | 24 | 72.0 | 72 | 24 | 0.2058 | -205.4 | -40.6 | 54.0 | -205.37 | tlag_MCC50 (at MCC50): 24.0 h; MCC50 (figure 5, in µM): 5.556
5 | CC(C)(C)C(Cn1ccnc1)NC(=O)c1ccc2nc(C3CC3)oc2c1 (stereo not shown) [TCMDC-143336] | -64.3403 | -179.917 | -53.9696 | – | 0.2 | 3.062 | -93.0977 | -442.656 | -139.753 | 48.0 | 72 | 48 | – | 72 | 72 | 0.2058 | -64.3 | -179.9 | -54.0 | -64.3403 | MCC50 (figure 5): 50 µM
6 | COc1cccc(CCNC(=O)C(c2cn[nH]c2)N2CCN(c3ccc(Cl)cc3)CC2)c1 (stereo not shown) [TCMDC-143434] | 51.5158 | 102.276 | 117.751 | 5.6 | 0.07 | 2.576 | 51.5158 | 102.276 | 117.751 | 4.0 | 24 | 4 | 72.0 | 72 | 24 | 0.06859 | 51.5 | 102.3 | 117.8 | 51.5158 | t50%_Cmax: 24.0 h; tlag_MCC50 (at MCC50): 24.0 h; MCC50 (figure 5, in µM): 5.556
7 | COc1ccc(NS(=O)(=O)c2cc(NC(=O)c3ccc([N+](=O)[O-])s3)ccc2OC)cc1 [TCMDC-143163] | 71.4836 | 99.4358 | 93.6846 | 0.2 | 0.2 | 10.6053 | 69.9764 | 96.1683 | 85.8906 | 4.0 | 24 | 4 | 48.0 | 48 | 24 | 0.2058 | 71.5 | 99.4 | 93.7 | 71.4836 | t50%_Cmax: 24.0 h; tlag_MCC50 (at MCC50): 24.0 h; MCC50 (figure 5, in µM): 0.2058
8 | CC1CS(=O)(=O)CCN1/N=C/c1ccc([N+](=O)[O-])o1 (stereo not shown) [Nifurtimox, nifurtimox, reference compound] | 79.7791 | 100.284 | 96.6694 | 7.5 | 1.9 | – | – | – | – | 4.0 | 25.3333 | 4 | 48.2 | 48.2222 | 8.889 | 1.852 | 79.8 | 100.3 | 96.7 | – | ME (maximum effect) in RoK assay (in words): higher ME values close to 100%; tlag (in words): short t-lag values; t50pct_Cmax (t50%_Cmax) (Fig 2C, average, time to reduce 50% of initial parasite load at maximum concentration): 24 h; AM/CELL NORM (Time 4, figure 4 A): -6.175; AM/CELL NORM (Time 24, figure 4 A): 78.541; AM/CELL NORM (Time 48, figure 4 A): 98.3875; AM/CELL NORM (Time 72, figure 4 A): 101.766; Emax (Trypanosoma cruzi, H9c2, maximum percentage of parasite burden reduction reached by any concentration, 24 hours, read-out: ME 24h (maximum effect at 24 hours, intracellular amastigotes)): 81.7%; t50%_Cmax: 24.0 h; tlag_MCC50 (at MCC50): 8.9 h; MCC50 (figure 5, in µM): 7.545
